Measured values from paper PMC6242907, “Molecular basis of maintaining an oxidizing environment under anaerobiosis by soluble fumarate reductase” (Nature Communications, 2018).

Legend:
Osm1 [1] = target: T1, Osm1 (Saccharomyces cerevisiae, UniProt P21375); assay: X-ray crystal structure, […] Å; assay type: binding
T1 construct: residues 32-501, N-terminal His6 tag and thrombin site in pET28a, E. coli BL21(DE3); tag removed by trypsin for crystals

Osm1 [2] = target: T1, Osm1; assay: isothermal titration calorimetry; assay type: binding
From the text: isothermal titration calorimetry on Osm1 | Injection of FAD into the ITC sample cell containing holo-Osm1 created an exothermic response

Osm1 [3] = target: T2, Osm1 (Saccharomyces cerevisiae, UniProt P21375, S78K/P162R); assay: isothermal titration calorimetry; conditions: second FAD-binding pocket; 1 mM FAD injected into 28 µM double mutant
T2 construct: residues 32-501, N-terminal His6 tag and thrombin site in pET28a, E. coli BL21(DE3); tag removed by trypsin for crystals

Ero1 = target: T3, Ero1 (Saccharomyces cerevisiae, UniProt Q03103); assay: free flavin reduction at […] nm; assay type: biochemical; conditions: free FAD as electron acceptor; DTT and thioredoxin as reductant, airtight, oxygen-depleted
T3 construct: residues 56-424, His6-MBP fusion from E. coli Origami B(DE3), H6-MBP cleaved off by TEV protease; FAD-containing
T3 sequence (Q03103 56-424): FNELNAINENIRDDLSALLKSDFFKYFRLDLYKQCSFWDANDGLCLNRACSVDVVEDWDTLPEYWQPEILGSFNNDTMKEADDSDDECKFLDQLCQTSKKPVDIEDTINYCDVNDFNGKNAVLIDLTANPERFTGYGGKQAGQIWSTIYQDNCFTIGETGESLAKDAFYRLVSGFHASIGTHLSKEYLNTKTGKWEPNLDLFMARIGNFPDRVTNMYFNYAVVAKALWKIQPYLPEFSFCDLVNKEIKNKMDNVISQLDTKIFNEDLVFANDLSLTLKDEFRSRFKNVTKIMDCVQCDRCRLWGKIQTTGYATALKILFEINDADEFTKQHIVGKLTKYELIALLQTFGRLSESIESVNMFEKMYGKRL

T1 sequence (P21375 32-501): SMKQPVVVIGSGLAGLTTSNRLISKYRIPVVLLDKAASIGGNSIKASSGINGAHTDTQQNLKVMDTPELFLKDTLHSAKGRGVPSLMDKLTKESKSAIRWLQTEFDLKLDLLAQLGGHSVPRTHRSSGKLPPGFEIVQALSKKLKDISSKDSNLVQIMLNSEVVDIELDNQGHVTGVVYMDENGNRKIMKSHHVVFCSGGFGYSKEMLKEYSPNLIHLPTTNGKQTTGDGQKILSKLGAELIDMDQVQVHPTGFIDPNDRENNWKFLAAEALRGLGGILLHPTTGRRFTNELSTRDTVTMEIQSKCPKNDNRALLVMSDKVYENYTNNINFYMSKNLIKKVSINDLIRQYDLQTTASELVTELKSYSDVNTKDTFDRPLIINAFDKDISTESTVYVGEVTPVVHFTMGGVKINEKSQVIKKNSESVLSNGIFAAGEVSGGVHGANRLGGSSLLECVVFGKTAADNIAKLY
T2 sequence (P21375 32-501 S78K/P162R): as the sequence (P21375 32-501) above, with S47K, P131R counted along it

SMILES	X-ray crystal structure, 1.8 Å (Osm1 [1]; active site next to the isoalloxazine ring of cofactor FAD)	Kd (Osm1 [2]) [µM]	X-ray crystal structure, 1.8 Å (Osm1 [1]; first (cofactor) site, non-covalent, complex with fumarate)	no detectable thermal response (Osm1 [3])	free flavin reduction at 450 nm (Ero1)
O=C(O)/C=C/C(=O)O [fumarate]	S78, S79, H281, R326, H435, R477, and G480 from Osm1 are involved in the binding of fumarate				
Cc1cc2nc3c(=O)[nH]c(=O)nc-3n(C[C@H](O)[C@H](O)[C@H](O)COP(=O)(O)OP(=O)(O)OC[C@H]3O[C@@H](n4cnc5c(N)ncnc54)[C@H](O)[C@@H]3O)c2cc1C [FAD]		4.92	residues, including A45, K66, N73, S74, S79, G80, V194, D260, E467, S482, and L483	injection of FAD into the S78K/P162R mutant did not show any detectable thermal response	Ero1 could only use free FAD, but not FMN or riboflavin, under oxygen-depleted conditions
